Test results taken from ChEMBL document CHEMBL1147864, “Synthesis of new sugar derivatives from Stachys sieboldi Miq and antibacterial evaluation against Mycobacterium tuberculosis, Mycobacterium avium, and Staphylococcus aureus” (2007).
Values after ≈ are worked out from the molar mass of the structure shown.

Assays:
Format in all cases: functional
Conditions in all cases: 336 h
[1] = system: Mycobacterium tuberculosis; experiment: Antimycobacterial activity against isoniazide resistant Mycobacterium tuberculosis K-3-6 after 2 weeks by broth dilution method
[2] = system: Mycobacterium tuberculosis; experiment: Antimycobacterial activity against isoniazide-rifampicin-streptomycin-ethambutol-resistant Mycobacterium tuberculosis R-1-38 after 2 weeks by broth dilution method
[3] = system: Mycobacterium tuberculosis; experiment: Antimycobacterial activity against isoniazide-rifampicin-streptomycin-ethambutol-resistant Mycobacterium tuberculosis U-4-6 after 2 weeks by broth dilution method
[4] = system: Mycobacterium tuberculosis; experiment: Antimycobacterial activity against isoniazide-rifampicin-streptomycin-ethambutol-resistant Mycobacterium tuberculosis Z-1-4 after 2 weeks by broth dilution method
[5] = system: Mycobacterium tuberculosis; experiment: Antimycobacterial activity against isoniazide-rifampicin-ethambutol-resistant Mycobacterium tuberculosis J-1-19 after 2 weeks by broth dilution method
[6] = system: Mycobacterium tuberculosis; experiment: Antimycobacterial activity against isoniazide-rifampicin-streptomycin-ethambutol-resistant Mycobacterium tuberculosis P-4-11after 2 weeks by broth dilution method
[7] = system: Mycobacterium tuberculosis; experiment: Antimycobacterial activity against isoniazide-rifampicin-streptomycin-ethambutol-resistant Mycobacterium tuberculosis E-1-40 after 2 weeks by broth dilution method
[8] = system: Mycobacterium tuberculosis; experiment: Antimycobacterial activity against isoniazide-rifampicin-ethambutol-resistant Mycobacterium tuberculosis N-4-11 after 2 weeks by broth dilution method
[9] = system: Mycobacterium tuberculosis; experiment: Antimycobacterial activity against isoniazide-rifampicin-streptomycin-ethambutol-resistant Mycobacterium tuberculosis Z-1-2 after 2 weeks by broth dilution method
[10] = system: Mycobacterium tuberculosis; experiment: Antimycobacterial activity against isoniazide-rifampicin-streptomycin-ethambutol-resistant Mycobacterium tuberculosis C-1-29 after 2 weeks by broth dilution method
[11] = system: Mycobacterium tuberculosis; experiment: Antimycobacterial activity against isoniazide resistant Mycobacterium tuberculosis A-2-1 after 2 weeks by broth dilution method
[12] = system: Mycobacterium tuberculosis; experiment: Antimycobacterial activity against rifampicin resistant Mycobacterium tuberculosis A-2-4 after 2 weeks by broth dilution method
[13] = system: Mycobacterium tuberculosis; experiment: Antimycobacterial activity against isoniazide-rifampicin-streptomycin-ethambutol-resistant Mycobacterium tuberculosis A-2-6 after 2 weeks by broth dilution method
[14] = system: Mycobacterium tuberculosis; experiment: Antimycobacterial activity against isoniazide-rifampicin-streptomycin-ethambutol-resistant Mycobacterium tuberculosis Q-4-1 after 2 weeks by broth dilution method
[15] = system: Mycobacterium tuberculosis; experiment: Antimycobacterial activity against isoniazide-rifampicin-streptomycin-ethambutol-resistant Mycobacterium tuberculosis S-1-14 after 2 weeks by broth dilution method
[16] = system: Mycobacterium tuberculosis; experiment: Antimycobacterial activity against isoniazide-streptomycin resistant Mycobacterium tuberculosis A-4-25 after 2 weeks by broth dilution method
[17] = system: Mycobacterium tuberculosis; experiment: Antimycobacterial activity against isoniazide-rifampicin-streptomycin-ethambutol-resistant Mycobacterium tuberculosis U-2-15 after 2 weeks by broth dilution method
[18] = system: Mycobacterium tuberculosis; experiment: Antimycobacterial activity against isoniazide-rifampicin-streptomycin-ethambutol-resistant Mycobacterium tuberculosis P-1-50 after 2 weeks by broth dilution method
[19] = system: Mycobacterium tuberculosis; experiment: Antimycobacterial activity against isoniazide-rifampicin-streptomycin-ethambutol-resistant Mycobacterium tuberculosis N-5-2 after 2 weeks by broth dilution method
[20] = system: Mycobacterium tuberculosis; experiment: Antimycobacterial activity against isoniazide-rifampicin-streptomycin-ethambutol-resistant Mycobacterium tuberculosis V-1-16 after 2 weeks by broth dilution method
[21] = system: Mycobacterium tuberculosis; experiment: Antimycobacterial activity against streptomycin resistant Mycobacterium tuberculosis A-3-47 after 2 weeks by broth dilution method
[22] = system: Mycobacterium tuberculosis; experiment: Antimycobacterial activity against isoniazide-rifampicin-streptomycin-ethambutol-resistant Mycobacterium tuberculosis M-1-32 after 2 weeks by broth dilution method
[23] = system: Mycobacterium tuberculosis; experiment: Antimycobacterial activity against streptomycin resistant Mycobacterium tuberculosis A-4-8 after 2 weeks by broth dilution method
[24] = system: Mycobacterium tuberculosis; experiment: Antimycobacterial activity against isoniazide-rifampicin resistant Mycobacterium tuberculosis A-2-3 after 2 weeks by broth dilution method
[25] = system: Mycobacterium tuberculosis; experiment: Antimycobacterial activity against isoniazide-rifampicin-ethambutol-resistant Mycobacterium tuberculosis A-4-30 after 2 weeks by broth dilution method

Q: How did the MIC [1] turn out when `C=CCO[C@@H]1O[C@H](CO[C@H]2O[C@H](CO[C@H]3O[C@H](COC(C)=O)[C@H](OC(C)=O)[C@H](OC(C)=O)[C@H]3OC(C)=O)[C@H](OC(C)=O)[C@H](OC(C)=O)[C@H]2OC(C)=O)[C@@H](OC(C)=O)[C@H](OC(C)=O)[C@H]1OC(C)=O` was run?
A: The MIC was 3.13 µg/mL (≈ 3.24 µM).

Q: What about the MIC [2] of the same molecule?
A: The MIC was 6.25 µg/mL (≈ 6.48 µM).

Q: What about the MIC [3] of the same molecule?
A: Its MIC is 1.56 µg/mL (≈ 1.62 µM).

Q: What about the MIC [4] of the same molecule?
A: Its MIC is 6.25 µg/mL (≈ 6.48 µM).

Q: And the MIC [5]?
A: The MIC was 3.13 µg/mL (≈ 3.24 µM).

Q: And the MIC [6]?
A: Its MIC is 3.13 µg/mL (≈ 3.24 µM).

Q: What about the MIC [7] of the same molecule?
A: The MIC was 6.25 µg/mL (≈ 6.48 µM).

Q: What about the MIC [8] of the same molecule?
A: The MIC was 3.13 µg/mL (≈ 3.24 µM).

Q: What about the MIC [9] of the same molecule?
A: Its MIC is 3.13 µg/mL (≈ 3.24 µM).

Q: And the MIC [10]?
A: The MIC was 12.5 µg/mL (≈ 13 µM).

Q: What about the MIC [11] of the same molecule?
A: The MIC was 3.13 µg/mL (≈ 3.24 µM).

Q: What about the MIC [12] of the same molecule?
A: Its MIC is 12.5 µg/mL (≈ 13 µM).

Q: What about the MIC [13] of the same molecule?
A: The MIC was 6.25 µg/mL (≈ 6.48 µM).

Q: And the MIC [14]?
A: Its MIC is 6.25 µg/mL (≈ 6.48 µM).

Q: And the MIC [15]?
A: Its MIC is 6.25 µg/mL (≈ 6.48 µM).

Q: And the MIC [16]?
A: Its MIC is 12.5 µg/mL (≈ 13 µM).

Q: What about the MIC [17] of the same molecule?
A: Its MIC is 6.25 µg/mL (≈ 6.48 µM).

Q: And the MIC [18]?
A: Its MIC is 3.13 µg/mL (≈ 3.24 µM).

Q: What about the MIC [19] of the same molecule?
A: The MIC was 3.13 µg/mL (≈ 3.24 µM).

Q: What about the MIC [20] of the same molecule?
A: The MIC was 6.25 µg/mL (≈ 6.48 µM).

Q: What about the MIC [21] of the same molecule?
A: The MIC was 3.13 µg/mL (≈ 3.24 µM).

Q: What about the MIC [22] of the same molecule?
A: The MIC was 3.13 µg/mL (≈ 3.24 µM).

Q: And the MIC [23]?
A: Its MIC is 6.25 µg/mL (≈ 6.48 µM).

Q: What about the MIC [24] of the same molecule?
A: Its MIC is 3.13 µg/mL (≈ 3.24 µM).

Q: What about the MIC [25] of the same molecule?
A: Its MIC is 6.25 µg/mL (≈ 6.48 µM).
